In data set [1] the test system is norepinephrine uptake by synaptosomes from rat brain. Kind of data set: blockage of norepinephrine uptake by synaptosomes from rat brain. The format is biochemical. The source says:
(§1) This blockade is shown both in vitro with radioactive labelled compounds to determine the amount of monoamine uptake by synaptosomes from rat brain, and in vivo by a variety of methods. Among the physiologically active monoamines whose uptake is blocked by the compounds of this invention are included serotonin, norepinephrine and dopamine (3,4-dihydroxyphenylethylamine). […] Tables 1 and 2 which follow set forth the results of some of the in vitro determinations of the blockage of monoamine uptake by the compounds of this invention. In the tables, column 1 gives the R substituent on the 3-phenylpropylamine and columns 2-4, the concentration in micrograms per ml. that blocks the uptake of a particular amine by 50 percent for the amines--norephinephrine, serotonin, and dopamine. At the head of each column is given the concentration of the particular monoamine used in the experiment.

The test system of data set [2] is serotonin uptake by synaptosomes from rat brain. Briefly: blockage of serotonin uptake by synaptosomes from rat brain. Format: biochemical. The note with it: Table 1, serotonin 0.1 μM. An excerpt: In the tables, column 1 gives the R substituent on the 3-phenylpropylamine and columns 2-4, the concentration in micrograms per ml. that blocks the uptake of a particular amine by 50 percent for the amines--norephinephrine, serotonin, and dopamine. At the head of each column is given the concentration of the particular monoamine used in the experiment.

Data set [3] concerns dopamine uptake by synaptosomes from rat brain. Kind of data set: blockage of dopamine uptake by synaptosomes from rat brain. Format: biochemical.
Text: as §1

Data set [4] deals with mice. Briefly: apomorphine hypothermia antagonism test. Format: in vivo. The note with it: for antagonism of apomorphine hypothermia: in words. The procedure: (§2) The apomorphine hypothermia antagonism test is carried out as follows: mice are injected with a dose of apomorphine known to reduce body temperature approximately 4° C. The compound under test is injected 1/2 hour before the injection of the apomorphine and the temperatures measured 1/2 hour after injection. The degree of antagonism is expressed as a percent reduction (as compared with controls) of the temperature decrease produced by the injection of the apomorphine. The reserpine hypothermia reversal test is carried out as follows: groups of mice are injected with reserpine and 16.5 hours later are injected intraperitoneally with graded doses of the drug, a different dose level being given to each group of mice. Temperatures are measured at 1 hour after injection of the drug under test and again the effectiveness of the drug is expressed as a percentage decrease in the hypothermia induced by the injection of reserpine as compared with the control group. In the tables which follow, Table 4 gives the results in the apomorphine antagonism and reserpine reversal hypothermia tests for the secondary amines of this invention. In the table, the first column gives the substituent attached to the oxygen atom at the 3 position of the propylamine chain; columns 2 to 4 the percent antagonism against apomorphine hypothermia at dose levels of 0.3, 1 and 3 mg./kg. and columns 5-7 the percent reversal of reserpine hypothermia at the same dose levels.

Data set [5] deals with mice. Kind of data set: reserpine hypothermia reversal test. The format is in vivo. The note with it: for reversal of reserpine hypothermia: in words. Here is the method: as §2
The subject of the next data set is rats. Kind of data set: prevention of brain serotonin depletion caused by 4-chloroamphetamine. Format: in vivo, rat. The note with it: in words. Here is the method:
Following this injection, the protecting drug was injected at a dose of 15 mg./kg. of rat-weight intraperitoneally and determinations of brain serotonin levels were carried out 4 hours later.

Data set [6] deals with isolated muscle strips. Kind of data set: antiserotonin effect in isolated muscle strips. The format is cell-based.
Data set [7] relates to isolated muscle strips. Briefly: anticholinergic effect in isolated muscle strips. The format is cell-based.
Data set [8] concerns isolated muscle strips. Briefly: antihistaminic effect in isolated muscle strips. Format: cell-based.
The test system of a further data set is anesthetized cats. Kind of data set: electrocardiogram (QRS complex) in anesthetized cats. The note with it: intravenous injection.
Another data set has as its system pigeons. Briefly: operant behavior, fixed-ratio, fixed interval schedule in pigeons. Format: in vivo.
A short description of data set [9]: prevention of brain monoamine depletion caused by α-ethyl-4-methyl-m-tyramine. Format: in vivo. The note with it: in words.
The mark [10] stands for this setting: Table 1, norepinephrine 0.48 μM.
Setting [11] is: Table 5, mice, 1 mg./kg. intraperitoneally.
Where [12] appears, read: Table 5, mice, 3 mg./kg. intraperitoneally.
[13] abbreviates: Table 5, mice, 10 mg./kg. intraperitoneally.

A value given as a limit tells only on which side of the number the result lay.

We go through eleven compounds from patent publication US4194009A, “Aryloxyphenylpropylamines for obtaining a psychotropic effect” (Eli Lilly and Company, priority 1976, dated 1980).

As for `CN(C)CCC(Oc1ccc(C(F)(F)F)cc1)c1ccccc1` (stereo not drawn) [p-trifluoromethylphenyl, N,N-dimethyl 3-(p-trifluoromethylphenoxy)-3-phenylpropylamine], the “Concentration in mcg./ml. that blocks 50% of amine uptake, Norepinephrine” value in data set [1] (setting [10]) is 70 µg/mL. For the same compound, the “Concentration in mcg./ml. that blocks 50% of amine uptake, Serotonin” value in data set [2] is “.16 µg/mL”. Besides, the “Concentration in mcg./ml. that blocks 50% of amine uptake, Dopamine” value in data set [3] (Table 1, dopamine 0.2 μM) is greater than 100 µg/mL. In the data set on mice [4] (Mus musculus, Table 4, mice, 1 mg./kg., read-out: Percent Antagonism Apomorphine Pre-30 min.), the inhibition in vivo at 1 mg/kg worked out at 11%. In addition, the inhibition in vivo at 3 mg/kg in the data set on mice [4] (Mus musculus, Table 4, mice, 3 mg./kg., read-out: Percent Antagonism Apomorphine Pre-30 min.) was found to be 25%; in the data set on mice [4] (Mus musculus, Table 5, mice, 3 mg./kg., read-out: Percent Antagonism Apomorphine Pre-30 min.) it was 24%; in the data set on mice [5] (Mus musculus, ip, 1 h, Table 5, mice, 3 mg./kg. intraperitoneally, read-out: Percent Antagonism Reserpine Post-60 min.) it was 20%. Moreover, the “prevention of serotonin depletion caused by 4-chloroamphetamine” value (“prevention of serotonin depletion caused” for short) in the data set on rats is on record as “gave similar results”.
With `CN(C)CCC(Oc1cccc2ccccc12)c1ccccc1` (stereo not drawn) [α-naphthyl, N,N-dimethyl 3-(α-naphthyloxy)-3-phenylpropylamine], the “Concentration in mcg./ml. that blocks 50% of amine uptake, Norepinephrine” value in data set [1] (setting [10]) came out at 3 µg/mL. Further, the “Concentration in mcg./ml. that blocks 50% of amine uptake, Serotonin” value in data set [2] is “.03 µg/mL”. For the same compound, the “Concentration in mcg./ml. that blocks 50% of amine uptake, Dopamine” value in [3] (Table 1, dopamine 0.2 μM) worked out at 2.5 µg/mL. Further, the “Percent Antagonism Apomorphine Pre-30 min.” value is -17% with mice [4] (Table 5, mice, 1 mg./kg.); -10% with mice [4] (Table 5, mice, 3 mg./kg.); -7% with mice [4] (Table 5, mice, 10 mg./kg.). The “Percent Antagonism Reserpine Post-60 min.” value with mice [5] (setting [11]) is 15%; with mice [5] (setting [12]) it was 4%; with mice [5] (setting [13]) it was 15%.
Consider `CCc1ccccc1OC(CCN(C)C)c1ccccc1` (stereo not drawn) [o-ethylphenyl, N,N-dimethyl 3-(o-ethylphenoxy)-3-phenylpropylamine], for which the “Concentration in mcg./ml. that blocks 50% of amine uptake, Norepinephrine” value in data set [1] (setting [10]) was greater than 100 µg/mL. In [2], the “Concentration in mcg./ml. that blocks 50% of amine uptake, Serotonin” value was determined as 3.5 µg/mL. The “Concentration in mcg./ml. that blocks 50% of amine uptake, Dopamine” value in data set [3] (Table 1, dopamine 0.2 μM) is greater than 100 µg/mL. Also, the “Percent Antagonism Apomorphine Pre-30 min.” value was found to be 20% in the data set with mice [4] (Table 5, mice, 3 mg./kg.) and 74% in the data set on mice [4] (Table 5, mice, 10 mg./kg.). Moreover, the “Percent Antagonism Reserpine Post-60 min.” value with mice [5] (setting [11]) is recorded as 17%; in the data set on mice [5] (setting [12]), 13%; in the data set with mice [5] (setting [13]), 35%.
`CCOc1ccccc1OC(CCN(C)C)c1ccccc1` (stereo not drawn) [o-phenetyl, N,N-dimethyl 3-(o-ethoxyphenoxy)-3-phenylpropylamine]: in [1] (setting [10]), the “Concentration in mcg./ml. that blocks 50% of amine uptake, Norepinephrine” value was 3 µg/mL. Besides, the “Concentration in mcg./ml. that blocks 50% of amine uptake, Serotonin” value in data set [2] is 6 µg/mL. Also, the “Concentration in mcg./ml. that blocks 50% of amine uptake, Dopamine” value in data set [3] (Table 1, dopamine 0.2 μM) is greater than 100 µg/mL. Further, the “Percent Antagonism Apomorphine Pre-30 min.” value worked out at 13% in the data set with mice [4] (Table 5, mice, 3 mg./kg.) and 76% with mice [4] (Table 5, mice, 10 mg./kg.). Further, the “Percent Antagonism Reserpine Post-60 min.” value in the data set on mice [5] (setting [12]) came out at 16%; with mice [5] (setting [13]), 40%.
As to `CNCCCN1c2ccccc2CCc2ccccc21` [desmethylimipramine], the “antagonism of apomorphine hypothermia” value with mice [4] is listed as “active”. Further, the “antiserotonin potency relative to N-methyl 3-(o-methoxyphenoxy)-3-phenylpropylamine” value with isolated muscle strips [6] is recorded as “three times more potent”. Further, the “anticholinergic potency relative to N-methyl 3-(o-methoxyphenoxy)-3-phenylpropylamine” value in the data set with isolated muscle strips [7] amounted to 150 times. Also, in the data set with mice [5], the “reversal of reserpine hypothermia” value is recorded as “active”. The “antihistaminic potency relative to N-methyl 3-(o-methoxyphenoxy)-3-phenylpropylamine” value in the data set with isolated muscle strips [8] worked out at 150 times.
Consider `COc1ccccc1OC(CCN)c1ccccc1` (stereo not drawn) [3-(o-Methoxyphenoxy)-3-phenylpropylamine, 3-(o-methoxyphenoxy)-3-phenylpropylamine], for which, in the data set with anesthetized cats, the “widening of the QRS complex of the electrocardiogram” value is listed as “affects the electrocardiogram similarly, but at far higher doses”.
As for `CN(C)CCC=C1c2ccccc2CCc2ccccc21` [amitriptyline, reference compound], the “antagonism of apomorphine hypothermia” value in the data set on mice [4] was “active”. Besides, in the data set on anesthetized cats, the “widening of the QRS complex of the electrocardiogram” value is on record as “causes a widening of the QRS complex”. Moreover, the “reversal of reserpine hypothermia” value in the data set with mice [5] is given as “active”.
For the compound `NCCC(Oc1ccc(C(F)(F)F)cc1)c1ccccc1.O=C(O)C(=O)O` (stereo not drawn) [3-(p-trifluoromethylphenoxy)-3-phenylpropylamine oxalate], the “prevention of serotonin depletion caused” value in the data set with rats is recorded as “gave similar results”.
`CNCCC(Oc1ccccc1OC)c1ccccc1` (stereo not drawn) [o-anisyl, N-methyl 3-(o-methoxyphenoxy)-3-phenylpropylamine]: the “persistence of the effect on response rates” value in the data set on pigeons is “more than 24 hours”.
With `CN(C)CCC(Oc1ccccc1Cl)c1ccccc1` (stereo not drawn) [o-chlorophenyl, N,N-dimethyl 3-(o-chlorophenoxy)-3-phenylpropylamine], the “Concentration in mcg./ml. that blocks 50% of amine uptake, Norepinephrine” value in data set [1] (setting [10]) was “.45 µg/mL”. For the same compound, the “Concentration in mcg./ml. that blocks 50% of amine uptake, Serotonin” value in data set [2] was “.2 µg/mL”. For the same compound, the “Concentration in mcg./ml. that blocks 50% of amine uptake, Dopamine” value in data set [3] (Table 1, dopamine 0.2 μM) is “.2 µg/mL”. Moreover, the “Percent Antagonism Apomorphine Pre-30 min.” value is on record as -10% in the data set with mice [4] (Table 5, mice, 1 mg./kg.); -17% in the data set on mice [4] (Table 5, mice, 3 mg./kg.); 57% in the data set on mice [4] (Table 5, mice, 10 mg./kg.). For the same compound, the “Percent Antagonism Reserpine Post-60 min.” value in the data set on mice [5] (setting [11]) came to 3%; with mice [5] (setting [12]), 4%; with mice [5] (setting [13]) it was 25%.
For the compound `CNCCC(Oc1ccc(C(F)(F)F)cc1)c1ccccc1` (stereo not drawn) [p-trifluoromethylpenyl, N-methyl 3-(p-trifluoromethylphenoxy)-3-phenylpropylamine], the “Concentration in mcg./ml. that blocks 50% of amine uptake, Norepinephrine” value in data set [1] (Table 2, norepinephrine 0.48 μM) amounted to 20 µg/mL. Moreover, in data set [3] (Table 2, dopamine 0.2 μM), the “Concentration in mcg./ml. that blocks 50% of amine uptake, Dopamine” value is greater than 100 µg/mL. Further, the “prevention of serotonin depletion caused” value in the data set with rats is on record as “prevented the depletion of serotonin”. Further, in [9], the “depletion of norepinephrine by α-ethyl-4-methyl-m-tyramine” value is listed as “not the depletion of norepinephrine” and the “depletion of serotonin in the brain by α-ethyl-4-methyl-m-tyramine” value is given as “prevented the depletion of serotonin in the brain”.
